Results reported in PubChem BioAssay (NCI).
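Protocol summary: plate cells (96-well), add compound at 5 concentrations, incubate 48 h, interpolate endpoints linearly. GI50: concentration for 50% inhibition of growth. TGI is the concentration that stops growth completely.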

system: SW-620 colon; experiment: growth of human tumour cells (NCI), 48 h

| SMILES | TGI [µM] | GI50 [µM] |
| --- | --- | --- |
| O=C(O)CCc1coc2ccc(O)cc12 | > 100 | – |
| C[C@]12CC[C@H](O)CC1=CC[C@@H]1C2CC[C@]2(C)C(=O)N(N)C(=O)CC12 (stereo partly drawn) | > 100 | – |
| Clc1cc2nsnc2c(Cl)n1 | 27.8 | – |
| Cc1cccc2c(=O)cc(-c3ccccc3)[nH]c12 | > 100 | – |
| COC(CN1C(=O)c2cccc3cccc(c23)C1=O)OC | > 100 | – |
| Cc1nc2ccccc2c(=O)n1-c1ccccc1I | > 100 | – |
| CC(=O)NNc1nc(C)c(C(=O)NNC(=O)C(=O)Nc2ccc(Cl)cc2)s1 | > 100 | – |
| Cc1ccc(C(=O)/C(=C/c2ccc([N+](=O)[O-])cc2)SCc2ccc(Cl)cc2)cc1 | 0.523 | 0.21 |
| O=C(N/C(=C\c1ccc(/C=C(\NC(=O)c2ccccc2)c2nc3cc([N+](=O)[O-])ccc3[nH]2)cc1)c1nc2cc([N+](=O)[O-])ccc2[nH]1)c1ccccc1 | > 100 | – |
| CC1=C(C(=O)NCc2ccccc2)C(/C=C/c2ccccc2)C(C(=O)NCc2ccccc2)=C(C)N1 | > 100 | – |
| CC1(c2ccc(F)cc2)C(C#N)C(=O)NC(=O)C1C#N (stereo not drawn) | > 100 | – |
| O=C1C2C(C(=O)N1OS(=O)(=O)c1ccccc1)N(Cc1ccccc1)C(=O)N2Cc1ccccc1 (stereo not drawn) | > 100 | – |
| Cc1cc(C)nc(NS(=O)(=O)c2ccc(NC(=O)c3ccc(Cl)c4c(Nc5ccc(S(=O)(=O)Nc6nc(C)cc(C)n6)cc5)c5ccccc5nc34)cc2)n1 | > 100 | – |
| COc1ccc2c3c1C(=O)CCCC3CO2 (stereo not drawn) | > 100 | – |
| N#CC(c1ccc(Cl)cc1)c1cccc(C(C#N)c2ccc(Cl)cc2)n1 (stereo not drawn) | > 100 | – |
| CCCCCN(CCCCC)CCCNc1c2c(nc3ccc(Cl)cc13)CCCC2 | 8.55 | 1.97 |
| O=C1/C(=C/c2ccccc2)CN(C(=O)C(Cl)(Cl)Cl)C/C1=C\c1ccccc1 | 1.82 | – |
| Cn1c2ccccc2c2c(Nc3ccccc3)c3ccccc3nc21 | 58.3 | 17.1 |
| O=S1(=O)c2ccccc2NC(c2ccc3ccccc3c2)CC1c1ccccc1F (stereo not drawn) | > 100 | – |
| Cc1ccc(NC2=C(Cl)C(=O)N(Cc3ccccc3)C2=O)cc1O | > 100 | 39.2 |

system: NCI-H226 lung; experiment: growth of human tumour cells (NCI), 48 h

| SMILES | TGI [µM] | GI50 [µM] |
| --- | --- | --- |
| CCN(CCO)CC1CCCC2CCCCC21 (stereo not drawn) | > 100 | – |
| CC[C@@]1(O)C[C@H](OC2CC(N(C)C)C(O)C(C)O2)c2c(O)c3c(c(O)c2[C@H]1OC1CC(N(C)C)C(O)C(C)O1)C(=O)c1cccc(O)c1C3=O (stereo partly drawn) | – | < 0.01 |
| COC1(OC)CCC2C1C1CCC(OC)(OC)C21 (stereo not drawn) | > 50 | – |
| NNC(=O)Nc1cccnc1 | > 100 | – |
| CC/C=C\CCC/C=C1/C(=O)C=C[C@@H]1C/C=C\CCCC(=O)OC | 9.64 | 3.25 |
| COc1ccc(-c2nc3sccn3c2/C(N)=N/C(=N)N)cc1OC | > 100 | 45.1 |
| CCCCCCCCCCCOc1ccc(C(=O)C(=O)c2ccc(OCCCCCCCCCCC)c(OCCCCCCCCCCC)c2)cc1OCCCCCCCCCCC | > 100 | – |
| Cn1cnc([N+](=O)[O-])c1Sc1nnc(-c2cccnc2)n1C | > 81.6 | – |
| CCOC(=O)C1=C(C)NC(=S)NC1c1ccccc1 (stereo not drawn) | > 100 | – |
| COC1=CC(=O)c2nc(-c3ccncc3)[nH]c2C1=O | > 100 | > 100 |
| O=C(/C=C/c1ccccc1)NC1C=Nc2ccc(Cl)cc2NC1=O (stereo not drawn) | > 100 | – |
| COC1CCC2C(NS(=O)(=O)c3ccc(C)cc3)CCCC2O1 (stereo not drawn) (tested in a mixture with another compound) | > 34.5 | – |
| CC(C)C/C(CC(=O)CCC(=O)Nc1ccccc1[N+](=O)[O-])=N\NC(=O)c1cc2ccccc2cc1O | > 100 | – |
| O=C1/C(=C/c2cccc([N+](=O)[O-])c2)COc2ccc(O)cc21 | 5.23 | 2.19 |
| O=C(O)c1ccccc1[Se][Se]c1ccccc1C(=O)O | 31.4 | – |
| COc1cc(CNc2cnc3cc(N)cc(N)c3n2)cc(OC)c1 | 55.3 | 17.4 |
| CCCCC(=O)OCC(=O)[C@]1(O)Cc2c(O)c3c(c(O)c2[C@@H](OC2CC(NC(=O)C(F)(F)F)C(O)C(C)O2)C1)C(=O)c1c(OC)cccc1C3=O (stereo partly drawn) | 0.192 | – |

| SMILES | TGI [µM] | GI50 [µM] |
| --- | --- | --- |
| C[C@]12CC[C@H](O)CC1=CC[C@@H]1C2CC[C@]2(C)C(=O)N(N)C(=O)CC12 (stereo partly drawn) | > 100 | – |
| Clc1cc2nsnc2c(Cl)n1 | 42.3 | – |
| Cc1cccc2c(=O)cc(-c3ccccc3)[nH]c12 | > 100 | – |
| COC(CN1C(=O)c2cccc3cccc(c23)C1=O)OC | > 100 | – |
| Cc1nc2ccccc2c(=O)n1-c1ccccc1I | > 100 | – |
| CC(=O)NNc1nc(C)c(C(=O)NNC(=O)C(=O)Nc2ccc(Cl)cc2)s1 | > 100 | – |
| Cc1ccc(C(=O)/C(=C/c2ccc([N+](=O)[O-])cc2)SCc2ccc(Cl)cc2)cc1 | > 100 | > 100 |
| CC1=C(C(=O)NCc2ccccc2)C(/C=C/c2ccccc2)C(C(=O)NCc2ccccc2)=C(C)N1 | > 100 | – |
| CC1(c2ccc(F)cc2)C(C#N)C(=O)NC(=O)C1C#N (stereo not drawn) | > 100 | – |
| O=C1C2C(C(=O)N1OS(=O)(=O)c1ccccc1)N(Cc1ccccc1)C(=O)N2Cc1ccccc1 (stereo not drawn) | > 100 | – |
| COc1ccc2c3c1C(=O)CCCC3CO2 (stereo not drawn) | > 100 | – |
| N#CC(c1ccc(Cl)cc1)c1cccc(C(C#N)c2ccc(Cl)cc2)n1 (stereo not drawn) | > 100 | – |
| CCCCCN(CCCCC)CCCNc1c2c(nc3ccc(Cl)cc13)CCCC2 | 6.71 | 2.05 |
| Cn1c2ccccc2c2c(Nc3ccccc3)c3ccccc3nc21 | 46.4 | 16.4 |
| O=S1(=O)c2ccccc2NC(c2ccc3ccccc3c2)CC1c1ccccc1F (stereo not drawn) | > 100 | – |
| Cc1ccc(NC2=C(Cl)C(=O)N(Cc3ccccc3)C2=O)cc1O | 60.6 | 18.1 |

system: K-562 leukemia; experiment: growth of human tumour cells (NCI), 48 h

| SMILES | TGI [µM] | GI50 [µM] |
| --- | --- | --- |
| CCN(CCO)CC1CCCC2CCCCC21 (stereo not drawn) | > 100 | – |
| CC[C@@]1(O)C[C@H](OC2CC(N(C)C)C(O)C(C)O2)c2c(O)c3c(c(O)c2[C@H]1OC1CC(N(C)C)C(O)C(C)O1)C(=O)c1cccc(O)c1C3=O (stereo partly drawn) | – | < 0.01 |
| COC1(OC)CCC2C1C1CCC(OC)(OC)C21 (stereo not drawn) | > 50 | – |
| NNC(=O)Nc1cccnc1 | > 100 | – |
| CC/C=C\CCC/C=C1/C(=O)C=C[C@@H]1C/C=C\CCCC(=O)OC | 11.6 | 2.46 |
| COc1ccc(-c2nc3sccn3c2/C(N)=N/C(=N)N)cc1OC | > 100 | 27.6 |
| CCCCCCCCCCCOc1ccc(C(=O)C(=O)c2ccc(OCCCCCCCCCCC)c(OCCCCCCCCCCC)c2)cc1OCCCCCCCCCCC | > 100 | – |
| Cn1cnc([N+](=O)[O-])c1Sc1nnc(-c2cccnc2)n1C | 57.8 | – |
| CCOC(=O)C1=C(C)NC(=S)NC1c1ccccc1 (stereo not drawn) | > 75.1 | – |
| COC1=CC(=O)c2nc(-c3ccncc3)[nH]c2C1=O | > 100 | > 100 |
| O=C(/C=C/c1ccccc1)NC1C=Nc2ccc(Cl)cc2NC1=O (stereo not drawn) | 59 | – |
| COC1CCC2C(NS(=O)(=O)c3ccc(C)cc3)CCCC2O1 (stereo not drawn) (tested in a mixture with another compound) | 27.8 | – |
| CC(C)C/C(CC(=O)CCC(=O)Nc1ccccc1[N+](=O)[O-])=N\NC(=O)c1cc2ccccc2cc1O | > 100 | – |
| O=C1/C(=C/c2cccc([N+](=O)[O-])c2)COc2ccc(O)cc21 | 11.8 | 0.506 |
| O=C(O)c1ccccc1[Se][Se]c1ccccc1C(=O)O | > 100 | – |
| COc1cc(CNc2cnc3cc(N)cc(N)c3n2)cc(OC)c1 | 47 | 11.3 |
| CCCCC(=O)OCC(=O)[C@]1(O)Cc2c(O)c3c(c(O)c2[C@@H](OC2CC(NC(=O)C(F)(F)F)C(O)C(C)O2)C1)C(=O)c1c(OC)cccc1C3=O (stereo partly drawn) | > 21.9 | – |
| O=C(O)CCc1coc2ccc(O)cc12 | > 100 | – |

| SMILES | TGI [µM] | GI50 [µM] |
| --- | --- | --- |
| C[C@]12CC[C@H](O)CC1=CC[C@@H]1C2CC[C@]2(C)C(=O)N(N)C(=O)CC12 (stereo partly drawn) | > 100 | – |
| Clc1cc2nsnc2c(Cl)n1 | 51.9 | – |
| Cc1cccc2c(=O)cc(-c3ccccc3)[nH]c12 | > 100 | – |
| COC(CN1C(=O)c2cccc3cccc(c23)C1=O)OC | > 100 | – |
| Cc1nc2ccccc2c(=O)n1-c1ccccc1I | > 100 | – |
| CC(=O)NNc1nc(C)c(C(=O)NNC(=O)C(=O)Nc2ccc(Cl)cc2)s1 | > 100 | – |
| O=C(N/C(=C\c1ccc(/C=C(\NC(=O)c2ccccc2)c2nc3cc([N+](=O)[O-])ccc3[nH]2)cc1)c1nc2cc([N+](=O)[O-])ccc2[nH]1)c1ccccc1 | > 100 | – |
| CC1=C(C(=O)NCc2ccccc2)C(/C=C/c2ccccc2)C(C(=O)NCc2ccccc2)=C(C)N1 | > 100 | – |
| CC1(c2ccc(F)cc2)C(C#N)C(=O)NC(=O)C1C#N (stereo not drawn) | > 100 | – |
| O=C1C2C(C(=O)N1OS(=O)(=O)c1ccccc1)N(Cc1ccccc1)C(=O)N2Cc1ccccc1 (stereo not drawn) | > 100 | – |
| Cc1cc(C)nc(NS(=O)(=O)c2ccc(NC(=O)c3ccc(Cl)c4c(Nc5ccc(S(=O)(=O)Nc6nc(C)cc(C)n6)cc5)c5ccccc5nc34)cc2)n1 | 99 | – |
| COc1ccc2c3c1C(=O)CCCC3CO2 (stereo not drawn) | > 100 | – |
| N#CC(c1ccc(Cl)cc1)c1cccc(C(C#N)c2ccc(Cl)cc2)n1 (stereo not drawn) | > 100 | – |
| O=C1/C(=C/c2ccccc2)CN(C(=O)C(Cl)(Cl)Cl)C/C1=C\c1ccccc1 | 3.26 | – |
| Cn1c2ccccc2c2c(Nc3ccccc3)c3ccccc3nc21 | > 100 | 5.11 |
| O=S1(=O)c2ccccc2NC(c2ccc3ccccc3c2)CC1c1ccccc1F (stereo not drawn) | > 100 | – |
| Cc1ccc(NC2=C(Cl)C(=O)N(Cc3ccccc3)C2=O)cc1O | > 100 | 17.8 |
